The values below come from US9493411B2 (AbbVie Inc., priority 2013, dated 2016).

In assay [1] the test system is breast cancer cell line MX-1. Kind of assay: MX-1 cell line proliferation assay. Format: cell-based. The conditions noted are these: MX-1 cells, 3-day proliferation assay, Cell Titer Glo, read-out: Cellular proliferation: EC50. The protocol:
The impact of compounds of the Examples on cancer cell proliferation was determined using the breast cancer cell line MX-1 (ATCC) in a 3-day proliferation assay and the data are reported in Table 1. MX-1 cells were maintained in RPMI 1640 medium (Sigma) supplemented with 10% FBS at 37° C. and an atmosphere of 5% CO2. For compound testing, MX-1 cells were plated in 96-well black bottom plates at a density of 5000 cells/well in 90 μL of culture media and incubated at 37° overnight to allow cell adhesion and spreading. Compound dilution series were prepared in DMSO via a 3-fold serial dilution from 3 mM to 0.1 μM. The DMSO dilution series were then diluted 1:100 in phosphate buffered saline, and 10 μL of the resulted solution were added to the appropriate wells of the MX-1 cell plate. The final compound concentrations in the wells were 3, 1, 0.3, 0.1, 0.03, 0.01, 0.003, 0.001, 0.0003 and 0.0001 μM.
Luminescence readings from the Cell Titer Glo assay were normalized to the DMSO treated cells and analyzed using the GraphPad Prism software with sigmoidal curve fitting to obtain EC50s. The minimum significant ratio (MSR) was determined to evaluate assay reproducibility (Eastwood et al., (2006) J Biomol Screen, 11: 253-261).

Assay [2] concerns the target T1, BRD4 (BDI_K57-E168) (Homo sapiens, UniProt O60885).
T1 construct: BD1: amino acids K57-E168; made in house
Kind of assay: TR-FRET bromodomain binding assay, BRD4 first bromodomain. The conditions noted are these: His-tagged BD1, Alexa647-labeled probe 100 nM; Ki calculated from IC50. The essentials:
(§1)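 Read-out: TR-FRET ratio after 1 h at room temperature, normalized to controls and fitted for IC50, then converted to Ki. Reaction held 8 nM His-tagged domain, 1 nM Eu-anti-His antibody, Alexa647 probe (BDI 100 nM; BDII 30 nM) and test compound in 2% DMSO.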

In assay [3] the target is T2, BRD4 (BDII_E352-M457) (Homo sapiens, UniProt O60885).
T2 construct: made in house
Description: TR-FRET bromodomain binding assay, BRD4 second bromodomain. The conditions noted are these: His-tagged BD2, Alexa647-labeled probe 30 nM; Ki calculated from IC50. The essentials:
as §1

Each structure is given as a SMILES string. Like-named read-outs stand apart in the source and are kept apart here.

For the compound `Cc1[nH]c(-c2ccccc2NCC2CCOC2)cc1C(N)=O` (single isomer, unassigned) [Example 18], the EC50 in assay [1] (Homo sapiens, MX1, 72 h) was 2.85 µM. The Ki was 0.183 µM in assay [2] and 2.34 µM in assay [3].

Consider `Cc1[nH]c(-c2ccccc2NCC2CCOC2)cc1C(N)=O` (single isomer, unassigned) [Example 19], for which the EC50 in assay [1] was 2.36 µM. Besides, the figures for the Ki in assay [2] and in assay [3] were 0.131 µM and 1.83 µM, respectively.

Take `Cc1[nH]c(-c2ccccc2NCc2ccccc2)cc1C(N)=O` [Example 12, 5-[2-(benzylamino)phenyl]-2-methyl-1H-pyrrole-3-carboxamide]: the EC50 in assay [1] (Homo sapiens, MX1, 72 h) was 3.44 µM. For the same compound, the inhibitory constant (Ki) in assay [2] was 0.935 µM; in assay [3], 3.9 µM.

On to `Cc1[nH]c(-c2ccccc2NCC2CCCO2)cc1C(N)=O` (stereo not drawn) [Example 13, 2-methyl-5-{2-[(tetrahydrofuran-2-ylmethyl)amino]phenyl}-1H-pyrrole-3-carboxamide], for which the EC50 in assay [1] (Homo sapiens, MX1, 72 h) amounted to 3.3 µM. The Ki in assay [2] was 0.774 µM; in assay [3], 4.54 µM.

In the case of `Cc1[nH]c(-c2ccccc2NCC2CCCC2)cc1C(N)=O` [Example 14, 5-{2-[(cyclopentylmethyl)amino]phenyl}-2-methyl-1H-pyrrole-3-carboxamide], the EC50 in assay [1] (Homo sapiens, MX1, 72 h) came out at 0.465 µM. Further, the Ki in assay [2] is 0.209 µM; in assay [3], 0.722 µM.

For the compound `Cc1[nH]c(-c2ccccc2NCC2CCOC2)cc1C(N)=O` (stereo not drawn) [Example 17, 2-methyl-5-{2-[(tetrahydrofuran-3-ylmethyl)amino]phenyl}-1H-pyrrole-3-carboxamide], the EC50 in assay [1] (Homo sapiens, MX1, 72 h) was determined as 1.5 µM. The values for the Ki in assay [2] and in assay [3] were 0.248 µM and 1.87 µM, respectively.

Consider `CCCCNc1ccccc1-c1cc(C(N)=O)c(C)[nH]1` [Example 27, 5-[2-(butylamino)phenyl]-2-methyl-1H-pyrrole-3-carboxamide], for which, in assay [1] (Homo sapiens, MX1, 72 h), the EC50 came to 1.3 µM. In addition, the Ki in assay [2] is 0.384 µM; in assay [3], 1.48 µM.

For `Cc1[nH]c(-c2ccccc2NCc2cccs2)cc1C(N)=O` [Example 38, 2-methyl-5-{2-[(thiophen-2-ylmethyl)amino]phenyl}-1H-pyrrole-3-carboxamide], the EC50 in assay [1] (Homo sapiens, MX1, 72 h) worked out at 3.8 µM. Further, the values for the Ki in assay [2] and in assay [3] were 0.622 µM and 1.14 µM, respectively.

Turning to `Cc1[nH]c(-c2ccccc2NCC2CCN(C(=O)OC(C)(C)C)C2)cc1C(N)=O` (stereo not drawn) [Example 40, tert-butyl 3-({[2-(4-carbamoyl-5-methyl-1H-pyrrol-2-yl)phenyl]amino}methyl)pyrrolidine-1-carboxylate], the EC50 in assay [1] (Homo sapiens, MX1, 72 h) is more than 10 µM. Moreover, the inhibitory constant (Ki) in assay [2] was 0.212 µM; in assay [3], 5.58 µM.

In the case of `Cc1[nH]c(-c2ccccc2NCC2CCNC2)cc1C(N)=O` (stereo not drawn) [Example 42, 2-methyl-5-{2-[(pyrrolidin-3-ylmethyl)amino]phenyl}-1H-pyrrole-3-carboxamide], the EC50 in assay [1] (Homo sapiens, MX1, 72 h) was more than 10 µM. Further, the results for the Ki in assay [2] and in assay [3] were 0.446 µM and 14.5 µM, respectively.

As for `Cc1[nH]c(-c2ccccc2NCC2CCNCC2)cc1C(N)=O` [Example 43, 2-methyl-5-{2-[(piperidin-4-ylmethyl)amino]phenyl}-1H-pyrrole-3-carboxamide], the EC50 in assay [1] (Homo sapiens, MX1, 72 h) was more than 10 µM. The Ki in assay [2] was 0.469 µM; in assay [3], 11 µM.

As for `Cc1[nH]c(-c2ccccc2NCCC2CCN(C(=O)OC(C)(C)C)CC2)cc1C(N)=O` [Example 44, tert-butyl 4-(2-{[2-(4-carbamoyl-5-methyl-1H-pyrrol-2-yl)phenyl]amino}ethyl)piperidine-1-carboxylate], the EC50 in assay [1] (Homo sapiens, MX1, 72 h) was more than 10 µM. The results for the inhibitory constant (Ki) in assay [2] and in assay [3] were 0.322 µM and 1.79 µM, respectively.

With `Cc1[nH]c(-c2ccccc2NC[C@H]2CC[C@@H](NC(=O)OC(C)(C)C)CC2)cc1C(N)=O` [Example 45, tert-butyl [cis-4-({[2-(4-carbamoyl-5-methyl-1H-pyrrol-2-yl)phenyl]amino}methyl)cyclohexyl]carbamate], the EC50 in assay [1] (Homo sapiens, MX1, 72 h) was found to be 5.44 µM. In addition, the Ki was 0.434 µM in assay [2] and 9.29 µM in assay [3].

Consider `Cc1[nH]c(-c2ccccc2NC[C@H]2CC[C@H](NC(=O)OC(C)(C)C)CC2)cc1C(N)=O` [Example 46, tert-butyl [trans-4-({[2-(4-carbamoyl-5-methyl-1H-pyrrol-2-yl)phenyl]amino}methyl)cyclohexyl]carbamate], for which, in assay [1] (Homo sapiens, MX1, 72 h), the EC50 stood at 4.95 µM. Besides, the Ki in assay [2] is 0.426 µM; in assay [3] it was 16.3 µM.

Consider `Cc1[nH]c(-c2ccccc2NCCC2CCNCC2)cc1C(N)=O` [Example 47, 2-methyl-5-(2-{[2-(piperidin-4-yl)ethyl]amino}phenyl)-1H-pyrrole-3-carboxamide], for which the EC50 in assay [1] (Homo sapiens, MX1, 72 h) is more than 10 µM. Moreover, the inhibition constant (Ki) in assay [2] is 0.498 µM; in assay [3], 7.83 µM.

In the case of `Cc1[nH]c(-c2ccccc2NC[C@H]2CC[C@@H](N)CC2)cc1C(N)=O` [Example 48, 5-(2-{[(cis-4-aminocyclohexyl)methyl]amino}phenyl)-2-methyl-1H-pyrrole-3-carboxamide], the EC50 in assay [1] (Homo sapiens, MX1, 72 h) was 9.58 µM. Also, the inhibition constant Ki in assay [2] is 0.224 µM; in assay [3], 6.22 µM.

`Cc1[nH]c(-c2ccccc2NC[C@H]2CC[C@H](N)CC2)cc1C(N)=O` [Example 49, 5-(2-{[(trans-4-aminocyclohexyl)methyl]amino}phenyl)-2-methyl-1H-pyrrole-3-carboxamide]: the EC50 in assay [1] (Homo sapiens, MX1, 72 h) is more than 10 µM. Moreover, the Ki is 0.313 µM in assay [2] and 5.6 µM in assay [3].

Turning to `Cc1[nH]c(-c2ccccc2NCc2cccc(N)c2)cc1C(N)=O` [Example 53, 5-{2-[(3-aminobenzyl)amino]phenyl}-2-methyl-1H-pyrrole-3-carboxamide], the EC50 in assay [1] (Homo sapiens, MX1, 72 h) was 4.17 µM. In addition, the figures for the inhibitory constant (Ki) in assay [2] and in assay [3] were 0.659 µM and 3.19 µM, respectively.

Regarding `Cc1[nH]c(-c2ccccc2NCc2ccc(O)cc2)cc1C(N)=O` [Example 54, 5-{2-[(4-hydroxybenzyl)amino]phenyl}-2-methyl-1H-pyrrole-3-carboxamide], the EC50 in assay [1] (Homo sapiens, MX1, 72 h) is 0.19 µM. In addition, the results for the inhibition constant (Ki) in assay [2] and in assay [3] were 0.585 µM and 3.88 µM, respectively.

Regarding `Cc1[nH]c(-c2ccccc2NCc2ccc3[nH]ccc3c2)cc1C(N)=O` [Example 56, 5-{2-[(1H-indol-5-ylmethyl)amino]phenyl}-2-methyl-1H-pyrrole-3-carboxamide], the EC50 in assay [1] (Homo sapiens, MX1, 72 h) was more than 10 µM. Also, the results for the Ki in assay [2] and in assay [3] were 1.63 µM and 2.69 µM, respectively.

`Cc1[nH]c(-c2ccccc2N(Cc2ccc(OCCCN(C)C)cc2)CC2CCCC2)cc1C(N)=O` [Example 57, 5-{2-[(cyclopentylmethyl){4-[3-(dimethylamino)propoxy]benzyl}amino]phenyl}-2-methyl-1H-pyrrole-3-carboxamide]: the EC50 in assay [1] (Homo sapiens, MX1, 72 h) was more than 3 µM. Besides, the results for the Ki in assay [2] and in assay [3] were 0.392 µM and 1.9 µM, respectively.

As for `Cc1[nH]c(-c2ccccc2NC2CCCCC2)cc1C(N)=O` [Example 62, 5-[2-(cyclohexylamino)phenyl]-2-methyl-1H-pyrrole-3-carboxamide], the EC50 in assay [1] (Homo sapiens, MX1, 72 h) is 0.52 µM. For the same compound, the results for the Ki in assay [2] and in assay [3] were 0.197 µM and 1.24 µM, respectively.

For `Cc1[nH]c(-c2ccccc2NC2CCOC2)cc1C(N)=O` (stereo not drawn) [Example 63, 2-methyl-5-[2-(tetrahydrofuran-3-ylamino)phenyl]-1H-pyrrole-3-carboxamide], the EC50 in assay [1] (Homo sapiens, MX1, 72 h) was 2.46 µM. Besides, the Ki was 0.352 µM in assay [2] and 6.9 µM in assay [3].

As to `Cc1[nH]c(-c2ccccc2NC2CCc3ccccc32)cc1C(N)=O` (stereo not drawn) [Example 67, 5-[2-(2,3-dihydro-1H-inden-1-ylamino)phenyl]-2-methyl-1H-pyrrole-3-carboxamide], the EC50 in assay [1] (Homo sapiens, MX1, 72 h) was more than 3 µM. In addition, the Ki in assay [2] is 0.452 µM; in assay [3], 0.81 µM.

On to `Cc1[nH]c(-c2ccccc2NC2CCSCC2)cc1C(N)=O` [Example 68, 2-methyl-5-[2-(tetrahydro-2H-thiopyran-4-ylamino)phenyl]-1H-pyrrole-3-carboxamide], for which the EC50 in assay [1] (Homo sapiens, MX1, 72 h) was 1.13 µM. Further, the inhibitory constant (Ki) in assay [2] was 0.151 µM; in assay [3], 2.59 µM.

For `Cc1[nH]c(-c2ccccc2NC2CCOCC2)cc1C(N)=O` [Example 70, 2-methyl-5-[2-(tetrahydro-2H-pyran-4-ylamino)phenyl]-1H-pyrrole-3-carboxamide], in assay [1] (Homo sapiens, MX1, 72 h), the EC50 was more than 3 µM. For the same compound, the Ki in assay [2] is 0.434 µM; in assay [3], 4.29 µM.

`Cc1[nH]c(-c2ccccc2NC2C3CC4CC(C3)CC2C4)cc1C(N)=O` (stereo not drawn) [Example 72, 2-methyl-5-{2-[tricyclo[3.3.1.1^3,7]dec-2-ylamino]phenyl}-1H-pyrrole-3-carboxamide]: the EC50 in assay [1] (Homo sapiens, MX1, 72 h) came to 0.167 µM. Moreover, the Ki is 0.0781 µM in assay [2] and 0.416 µM in assay [3].

As usually defined, the Ki is a measure of affinity in units of concentration, obtained from inhibition or displacement.
